According to patent US20070213338A1, “Triazolo-Pyridazine Compounds and Derivatives Thereof Useful in the Treatment of Neuropathic Pain” (priority 2003, published 2007):

Tested on: nerve injury-induced tactile allodynia
Experiment: Spinal Nerve Ligation Model (Chung Model)
Format: in vivo, Male Sprague Dawley rats
Details: rat, i.p. dosing at 30 mg/kg
Text: The spinal nerve ligation model of neuropathic pain was used to assess the effects of test compounds on nerve injury-induced tactile allodynia (S. H. Kim and J. M. Chung, Pain 50:355-363(1992)). Male Sprague Dawley rats (175-200 g) received unilateral tight ligation of the left L5/L6 spinal nerves distal to the dorsal root ganglion using 4-0 silk suture. Behavioral nociceptive testing occurred 7-14 days following spinal nerve ligation by placing the rats in chambers on a wire mesh. Rats were tested for tactile allodynia (decreased hindpaw withdrawal threshold to non-noxious punctate stimulation) by applying a series of calibrated von Frey filaments to the plantar aspect of the left hindpaw ipsilateral to the site of nerve injury. The mean 50% hindpaw withdrawal threshold (g.) was determined using the Dixon “up-own” non-parametric test (Chaplan et al., J. Neurosci. Methods, 53:55-63(1994)). […] Following determination of pre-drug withdrawal thresholds, rats received either an i.p. or p.o. injection of test compound. The effect of the test compound on tactile allodynia was determined over time by measuring hindpaw withdrawal thresholds 30, 60, 90, 120 min post-injection.

Compound | effect on tactile allodynia (hindpaw withdrawal threshold) [%]
FC(F)(F)c1nnc2c3ccccc3c(OCc3cccc(CNCCc4ccccc4)n3)nn12 [Example 58, Phenethyl-[6-(3-trifluoromethyl-[1,2,4]triazolo[3,4,-a]phthalazin-6-yloxymethyl)-pyridin-2-ylmethyl]-amine] | 100
Cc1nnc2c3ccccc3c(OCc3cccc(CNCCc4ccccc4)n3)nn12 [Example 23] | 65
